Measurements: patent US6627441B1, “Increasing levels of growth regulator and/or water stress during embryo development” (priority 1998, dated 2003)

Legend:
Format in all cases: cell-based
[1] = tested on: Norway spruce somatic embryos; test: Norway spruce culture with raised ABA and PEG (Example 5)
Description: Norway spruce was cultured using the same protocol as developed for white spruce. Thus, somatic embryos from full hormone suspension culture were transferred to hormone-free liquid culture medium (half-strength Litvay's medium, 3% sucrose) for one week, then transferred (0.75 mL of 20% suspension) to maturation medium in petri dishes.
The first medium contained PEG adjusted to 290 mmol/kg and 20 μM ABA. After two weeks, the cultures were transferred on their filter paper supports to fresh medium of the same composition, or to medium containing PEG adjusted to 400 mmol/kg and 30 μM ABA. After a further two weeks (i e., the fourth week of culture), the somatic embryos were transferred either to PEG media at a water potential of 400 mmol/kg and 40 μM ABA, or to PEG medium of 540 mmol/kg and 40 μM ABA. Somatic embryos were also plated on medium containing 20 μM ABA and no PEG.

[2] = tested on: white spruce somatic embryos; test: Liquid maturation pretreatments with ABA and PEG, number of mature embryos (Example 7)
Description: Experiments were established to determine whether increasing ABA and water stress can be applied early in maturation. Somatic embryos in liquid maintenance suspension culture were transferred to liquid culture medium containing 1/20 of the strength of hormones in the preculture medium for 7 days. Seven treatments were prepared using these cultures as outlined below.
Starting water potential was 112 mmol/kg, and all preculture media contained 1/20 strength 2,4-D and BA that were present in the proliferation medium. Following these treatments, a 20% suspension was prepared and the embryos were plated onto solidified maturation medium containing PEG adjusted to 290 mmol/kg with PEG and 20 μM ABA.
Experiments were repeated at least three times and three replicates were prepared per treatment. Cultures were transferred to fresh medium every two weeks. Alternatively, to determine if PEG/ABA liquid maturation treatments modified the optimal starting water potential, the embryos were plated from the nine treatments to medium containing ABA at 20 μM and PEG at 290 or 380 mmol/kg. Additionally, to determine if PEG/ABA liquid maturation treatments modified the optimal starting ABA concentration, the embryos were plated from the nine treatments to medium containing PEG at 337 mmol/kg and ABA at 20 or 40 μM. Cultures were transferred to fresh medium every two weeks. After six weeks, the number of embryos developing per 0.75 mL starting inoculum was recorded. It can be seen from FIG. 3 that all treatments in which PEG and ABA were added gave an improvement over the control. Previous experiments had shown that the control ( 1/20 of the hormones present in the proliferation medium) yielded almost four times the number of mature embryos compared to no pretreatment (i e., full hormone treatment), and almost three times the number of mature embryos compared to culture in hormone-free preculture medium (i e., means of 154, 41, and 58 mature embryos per replicate, respectively). […] The best treatments were those that contained additions of both PEG and ABA. […]

[3] = tested on: white spruce somatic embryos; test: Germination and transfer to soil after increasing PEG/ABA culture (Example 8)
Description: In another experiment, white spruce somatic embryos were transferred through the 1/20 hormone increasing PEG/ABA liquid maturation culture (Example 7, treatment 8), then plated onto 20-40 μM ABA, 290-540 mmol/kg PEG transfer schedule (Example 4, treatment 6) followed by desiccation at 4° C. 203 embryos were selected and germinated at 4-12° C. for 4 weeks and produced roots and shoots with needles at a frequency of 191/203=94%. White spruce somatic seedlings produced subsequently using these methods survived transfer to soil in a greenhouse and underwent continued growth at frequencies of 95-100%. However, prolonging maturation of cotyledonary embryos in the presence of high water stress and ABA was detrimental to germination. Thus, after seven to eight weeks of culture of spruce somatic embryos the germination vigour (seedling elongation) and frequencies decreased. Late stage water stress of mid to late cotyledonary stage embryos to below about 30-40% moisture content preferably should not be carried out in the presence of a replenishing source of ABA. This will presumably prevent build up of endogenous ABA, and allow endogenous ABA levels to naturally decline.

[4] = tested on: white spruce somatic embryos; test: Varying ABA and PEG during development, precocious germination observations (Example 2); conditions: 6 weeks
Description: In order to test the above hypothesis, various concentrations of PEG and ABA were tested and modified during development of white spruce somatic embryos.
The starting treatments were prepared as outlined in Table 2.
The embryos were transferred to fresh medium every two weeks over a six week period. Observations were then recorded. The treatments consisted of the following ABA concentrations and media water potentials, with three replicates per treatment.

Compound: CC1=CC(=O)CC(C)(C)[C@@]1(O)/C=C/C(C)=C\C(=O)O [ABA, abscisic acid]
- appearance, precocious germination ([1]; 20 μM ABA, no PEG, after six weeks): green and elongated
- appearance, precocious germination ([1]; 290 mmol/kg PEG medium and 20 μM ABA, after six weeks): green and some had dark green tips to their cotyledons
- appearance, precocious germination ([1]; completed the 400 mmol/kg PEG, 40 μM ABA treatment, six weeks): yellow with a greenish tinge
- appearance, precocious germination ([1]; completed the 540 mmol/kg PEG, 40 μM ABA treatment, six weeks): small and white with no evidence of precocious germination
- best starting concentration of ABA in solidified maturation medium ([2]; optimal liquid treatments, PEG 337 mmol/kg, 20 or 40 μM tested, FIG. 4): 20 µM
- embryos per milliliter of starting inoculum ([2]; treatment 8: PEG and ABA added in steps at days 3 and 5): over 280 embryos per milliliter
- average number of mature embryos ([2]; treatment 8: PEG and ABA added in steps at days 3 and 5 of liquid culture, per 0.75 mL inoculum): about 224 mature embryos per replicate
- frequency of roots and shoots with needles ([3]; Example 7 treatment 8, then 20-40 μM ABA, 290-540 mmol/kg PEG schedule, desiccation at 4° C., germinated at 4-12° C. for 4 weeks): 94%
- survival of transfer to soil in a greenhouse with continued growth ([3]; somatic seedlings produced using increasing PEG/ABA methods): 95-100%
- observations (greening, precocious germination) ([4]; Expt A (start PEG 260 mmol/kg, ABA 16 μM), 1. Control, fresh medium of the same composition): green, cotyledon elongation
- observations (greening, precocious germination) ([4]; Expt A (start PEG 260 mmol/kg, ABA 16 μM), 2. Raise ABA (24, 32 μM)): slight or no greening
- observations (greening, precocious germination) ([4]; Expt A (start PEG 260 mmol/kg, ABA 16 μM), 5. Raise PEG (290, 320 mmol/kg), raise ABA (24, 32 μM)): slight or no greening
- observations (greening, precocious germination) ([4]; Expt B (start PEG 260 mmol/kg, ABA 24 μM), 1. Control, fresh medium of the same composition): greening
- observations (greening, precocious germination) ([4]; Expt B (start PEG 260 mmol/kg, ABA 24 μM), 2. Raise ABA (32, 32 μM)): no greening
- observations (greening, precocious germination) ([4]; Expt B (start PEG 260 mmol/kg, ABA 24 μM), 5. Raise PEG (290, 320 mmol/kg), raise ABA (32, 32 μM)): slight or no greening
- observations (greening, precocious germination) ([4]; Expt C (start PEG 290 mmol/kg, ABA 8 μM), 2. Raise ABA (16, 24 μM)): greening
- observations (greening, precocious germination) ([4]; Expt C (start PEG 290 mmol/kg, ABA 8 μM), Raise PEG (12, 14%), raise ABA (16, 24 μM)): none or slight greening
- observations (greening, precocious germination) ([4]; Expt D (start PEG 290 mmol/kg, ABA 16 μM), 2. Raise ABA (24, 32 μM)): no greening
- observations (greening, precocious germination) ([4]; Expt D (start PEG 290 mmol/kg, ABA 16 μM), 4. Raise PEG (290, 320), lower ABA (8, 8 μM)): greening
- observations (greening, precocious germination) ([4]; Expt D (start PEG 290 mmol/kg, ABA 16 μM), 5. Raise PEG (290, 320), raise ABA (24, 32 μM)): no greening
